Source: ChEMBL document CHEMBL5370557, “Structure-based discovery of IHMT-IDH1-053 as a potent irreversible IDH1 mutant selective inhibitor” (Eur J Med Chem, 2023)

Columns and labels:
[1] = biological target: T1, Isocitrate dehydrogenase [NADP] cytoplasmic (Homo sapiens, UniProt O75874, R132H); assay: Inhibition of IDH1 R132H mutant (unknown origin) expressed in Escherichia coli BL21 (DE3) assessed as NADPH consumption using alpha-KG as substrate measured after 60 mins
[2] = biological target: T1, Isocitrate dehydrogenase [NADP] cytoplasmic; assay: Inhibition of IDH1 R132H mutant (unknown origin) expressed in HEK293T cells assessed as inhibition of 2-HG generation measured after 48 hrs by LC-MS/MS analysis; assay type: cell-based
[3] = biological target: T2, Isocitrate dehydrogenase [NADP], mitochondrial (Homo sapiens, UniProt P48735); assay: Inhibition of wild type IDH2 (unknown origin) expressed in Escherichia coli BL21 (DE3) assessed as NADPH consumption using alpha-KG as substrate measured after 60 mins
T2 sequence (P48735 whole entry): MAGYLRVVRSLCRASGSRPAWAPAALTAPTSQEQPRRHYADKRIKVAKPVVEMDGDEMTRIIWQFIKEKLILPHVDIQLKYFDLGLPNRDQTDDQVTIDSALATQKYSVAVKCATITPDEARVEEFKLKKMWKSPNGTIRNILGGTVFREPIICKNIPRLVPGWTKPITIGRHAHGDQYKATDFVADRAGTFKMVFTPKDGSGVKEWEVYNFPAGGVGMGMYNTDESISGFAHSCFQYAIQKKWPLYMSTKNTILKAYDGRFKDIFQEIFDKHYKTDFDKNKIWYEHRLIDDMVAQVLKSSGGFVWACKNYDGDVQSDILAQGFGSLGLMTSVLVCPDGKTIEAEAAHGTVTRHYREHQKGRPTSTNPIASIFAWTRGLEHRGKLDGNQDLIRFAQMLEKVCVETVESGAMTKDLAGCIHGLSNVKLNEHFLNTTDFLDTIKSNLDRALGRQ

[4] = biological target: Isocitrate dehydrogenase [NADP], mitochondrial (Homo sapiens, UniProt P48735, R172K); assay: Inhibition of IDH2 R172K mutant (unknown origin) expressed in Escherichia coli BL21 (DE3) assessed as NADPH consumption using alpha-KG as substrate measured after 60 mins
Isocitrate dehydrogenase [NADP], mitochondrial (Homo sapiens, UniProt P48735, R172K), sequence (P48735 40-452 R172K limits assumed): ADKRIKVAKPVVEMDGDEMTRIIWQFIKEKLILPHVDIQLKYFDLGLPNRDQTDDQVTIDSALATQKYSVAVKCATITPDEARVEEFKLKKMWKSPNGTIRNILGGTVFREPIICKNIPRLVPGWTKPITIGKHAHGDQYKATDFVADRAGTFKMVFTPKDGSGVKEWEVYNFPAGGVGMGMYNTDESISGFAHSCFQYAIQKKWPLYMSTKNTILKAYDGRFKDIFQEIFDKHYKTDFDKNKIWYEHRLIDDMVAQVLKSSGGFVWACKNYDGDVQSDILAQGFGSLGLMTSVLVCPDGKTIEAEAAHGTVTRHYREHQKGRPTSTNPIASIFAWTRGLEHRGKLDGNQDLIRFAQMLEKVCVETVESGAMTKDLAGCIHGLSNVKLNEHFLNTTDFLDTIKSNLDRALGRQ

[5] = biological target: Isocitrate dehydrogenase [NADP], mitochondrial (Homo sapiens, UniProt P48735, R140Q); assay: Inhibition of IDH2 R140Q mutant (unknown origin) expressed in Escherichia coli BL21 (DE3) assessed as NADPH consumption using alpha-KG as substrate measured after 60 mins
Isocitrate dehydrogenase [NADP], mitochondrial (Homo sapiens, UniProt P48735, R140Q), sequence (P48735 40-452 R140Q limits assumed): as the sequence (P48735 40-452 R172K limits assumed) above, with R101Q, K133R counted along it

T1 sequence (O75874 2-414 R132H limits assumed): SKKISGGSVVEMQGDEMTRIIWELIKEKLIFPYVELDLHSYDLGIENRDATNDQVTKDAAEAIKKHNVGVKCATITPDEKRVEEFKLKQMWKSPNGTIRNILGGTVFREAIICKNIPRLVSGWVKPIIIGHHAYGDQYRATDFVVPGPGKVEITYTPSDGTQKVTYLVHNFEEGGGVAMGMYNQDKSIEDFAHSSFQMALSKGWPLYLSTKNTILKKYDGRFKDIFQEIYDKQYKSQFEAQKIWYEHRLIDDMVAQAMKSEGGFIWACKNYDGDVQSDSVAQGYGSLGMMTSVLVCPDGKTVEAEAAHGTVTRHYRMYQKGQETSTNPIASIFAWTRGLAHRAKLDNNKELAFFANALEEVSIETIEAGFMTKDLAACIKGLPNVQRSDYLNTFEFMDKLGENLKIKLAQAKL

| SMILES | IC50 [1] [nM] | IC50 [2] [nM] | other results |
| --- | --- | --- | --- |
| CC(C)[C@H]1COC(=O)N1c1nc(N[C@@H](C)c2ccc(Nc3ccc(NC(=O)CCl)c(N4CCOCC4)c3)cc2)ncc1F | > 10000 | 10000 | – |
| CCS(=O)(=O)Nc1ccc(Nc2ccc([C@H](C)Nc3ccc(C#N)cn3)cc2)cc1N(C)C | 2770 | – | – |
| CC(C)[C@H]1COC(=O)N1c1nc(N[C@@H](C)c2ccc(N3CCCC(NC(=O)CCl)C3)cc2)ncc1F (some centres undefined) | 516 | – | – |
| CCC(=O)Nc1ccc(Nc2ccc([C@H](C)Nc3nccc(N4C(=O)OC[C@@H]4C(C)C)n3)cc2)cc1N1CCN(CC)CC1 | 2760 | – | – |
| C=CS(=O)(=O)Nc1ccc(Nc2ccc([C@H](C)Nc3ncc(F)c(N4C(=O)OC[C@@H]4C(C)C)n3)cc2)cc1N1CCN(CC)CC1 | 245 | 864 | – |
| CCS(=O)(=O)N1CCC(Nc2ccc([C@H](C)Nc3nccc(N4C(=O)OC[C@@H]4C(C)C)n3)cc2)CC1 | 594 | – | – |
| CCS(=O)(=O)NC1CCN(c2ccc([C@H](C)Nc3ncc(C#N)cn3)cc2)CC1 | 3490 | – | – |
| C=CC(=O)Nc1cc(Nc2ccc([C@H](C)Nc3ncc(F)c(N4C(=O)OC[C@@H]4C(C)C)n3)cc2)ccc1N1CCOCC1 | 205 | 288 | – |
| N#Cc1ccnc(N2C(=O)CC[C@H]2C(=O)N(c2cncc(F)c2)[C@H](C(=O)NC2CC(F)(F)C2)c2ccccc2Cl)c1 [IVOSIDENIB] | – | – | IC50 [3]: > 10000 nM; IC50 [4]: > 10000 nM; IC50 [5]: > 10000 nM |
| C=CC(=O)NC1CCN(c2ccc([C@H](C)Nc3nccc(N4C(=O)OC[C@@H]4C(C)C)n3)cc2)CC1 | 6510 | – | – |

The next lines start with results.

| IC50 [1] [nM] | IC50 [2] [nM] | SMILES | other results |
| --- | --- | --- | --- |
| 77 | 126 | CCC(=O)Nc1cc(Nc2ccc([C@H](C)Nc3ncc(F)c(N4C(=O)OC[C@@H]4C(C)C)n3)cc2)ccc1N1CCOCC1 | – |
| 151 | 367 | C=CS(=O)(=O)Nc1cc(Nc2ccc([C@H](C)Nc3ncc(F)c(N4C(=O)OC[C@@H]4C(C)C)n3)cc2)ccc1N(C)C | – |
| 198 | – | CCC(=O)NC1CCN(c2ccc([C@H](C)Nc3ncc(F)c(N4C(=O)OC[C@@H]4C(C)C)n3)cc2)CC1 | – |
| 187 | 462 | C=CC(=O)NC1CCN(c2ccc([C@H](C)Nc3ncc(F)c(N4C(=O)OC[C@@H]4C(C)C)n3)cc2)CC1 | – |
| 5.9 | 45 | C=CS(=O)(=O)Nc1ccc(Nc2ccc([C@H](C)Nc3ncc(F)c(N4C(=O)OC[C@@H]4C(C)C)n3)cc2)cc1F | – |
| 55 | 4750 | C=CS(=O)(=O)Nc1ccc(Nc2ccc([C@H](C)Nc3ncc(F)c(N4C(=O)OC[C@@H]4C(C)C)n3)cc2)cc1OC | – |
| 161 | 171 | C=CS(=O)(=O)N1CCC(Nc2ccc([C@H](C)Nc3nccc(N4C(=O)OC[C@@H]4C(C)C)n3)cc2)CC1 | – |
| 192 | 37 | C=CS(=O)(=O)NC1CCN(c2ccc([C@H](C)Nc3nccc(N4C(=O)OC[C@@H]4C(C)C)n3)cc2)CC1 | – |
| 48 | 1250 | C=CS(=O)(=O)Nc1ccc(Nc2ccc([C@H](C)Nc3ncc(F)c(N4C(=O)OC[C@@H]4C(C)C)n3)cc2)cc1N(C)C | – |
| 119 | 214 | C=CS(=O)(=O)NC1CCCN(c2ccc([C@H](C)Nc3ncc(F)c(N4C(=O)OC[C@@H]4C(C)C)n3)cc2)C1 (some centres undefined) | – |
